Test results: patent US5185331A, “Triazolobenzodiazepines” (Merck & Co., Inc., priority 1991, dated 1993)
Where two headings read alike, the source gives them in different places.

How the values were obtained:
[1] = tested on: CCK-A receptors; settings: pancreas, gallbladder, colon; cited from earlier work
[2] = target: T1, CCK receptor (pancreas) (Rattus norvegicus, UniProt P30551); experiment: 125I-CCK receptor binding (pancreas); design: species or system rat (male Sprague-Dawley); settings: for effect on the 125I-CCK receptor binding assay: added as protease inhibitor
T1 construct: The whole pancreas was dissected free of fat tissue and was homogenized; from tissue; host or cells: rat pancreas (male Sprague-Dawley), washed membrane pellet of homogenate
T1 sequence (P30551 1-444): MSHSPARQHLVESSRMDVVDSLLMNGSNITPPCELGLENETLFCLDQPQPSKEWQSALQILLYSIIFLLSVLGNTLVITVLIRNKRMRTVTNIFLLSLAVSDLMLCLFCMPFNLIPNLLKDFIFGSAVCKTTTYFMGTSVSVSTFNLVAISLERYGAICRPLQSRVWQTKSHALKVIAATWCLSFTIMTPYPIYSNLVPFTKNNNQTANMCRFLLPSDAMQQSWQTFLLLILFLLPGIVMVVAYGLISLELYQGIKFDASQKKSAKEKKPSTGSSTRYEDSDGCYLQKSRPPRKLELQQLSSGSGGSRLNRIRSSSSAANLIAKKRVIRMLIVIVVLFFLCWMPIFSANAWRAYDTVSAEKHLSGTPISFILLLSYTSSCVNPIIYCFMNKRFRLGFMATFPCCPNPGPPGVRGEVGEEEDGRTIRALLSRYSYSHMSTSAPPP
Description: 1. CCK receptor binding (pancreas)
CCK-33 was radiolabeled with ^125 I-Bolton Hunter reagent (2000 Ci/mmole) as described by Sankara et al. (J. Biol. Chem. 254: 9349-9351, 1979). Receptor binding was performed according to Innis and Snyder (Proc. Natl. Acad. Sci. 77: 6917-6921, 1980) with the minor modification of adding the additional protease inhibitors, phenylmethane sulfonyl fluoride and o-phenanthroline. The latter two compounds have no effect on the ^125 I-CCK receptor binding assay.
Male Sprague-Dawley rats (200-350 g) were sacrificed by decapitation. The whole pancreas was dissected free of fat tissue and was homogenized in 20 volumes of ice-cold 50 mM, Tris HCl (pH 7.7 at 25° C.) with a Brinkmann Polytron PT 10. The homogenates were centrifuged at 48,000 g for 10 min. Pellets were resuspended in Tris Buffer, centrifuged as above and resuspended in 200 volumes of binding assay buffer (50 mM Tris HCl, pH 7.7 at 25° C., 5 mM dithiothrietol, 0.1 mM bacitracin, 1.2 mM phenylmethane sulfonyl fluoride and 0.5 mM o-phenanthroline). […] All assays were run in duplicate or triplicate. The reaction mixtures were incubated at 37° C. for 30 minutes and centrifuged in a Beckman Microfuge (4 minutes) immediately after adding 1 ml of ice-cold incubation buffer. The supernatant was aspirated and discarded, pellets were counted with a Beckman gamma 5000. For Scatchard analysis (Ann. N.Y. Acad. Sci. 51: 660, 1949), ^125 I-CCK-33 was progressively diluted with increasing concentrations of CCK-33.

[3] = rat, brain synaptosomal fraction; cited from earlier work
[4] = tested on: CCK-B receptors; settings: brain; cited from earlier work
[5] = target: T2, CCK receptor (brain) (Cavia porcellus, UniProt H0VZC5); experiment: 125I-CCK receptor binding (brain); design: species or system guinea pig (male Hartley); settings: guinea pig cerebral cortex, 125I-CCK-33, 25° C., 2 hours
T2 construct: Cerebral cortex was dissected and used as a receptor source; from tissue; host or cells: guinea pig cerebral cortex (male Hartley), washed membrane pellet of homogenate
Description: 2. CCK Receptor Binding (Brain)
CCK-33 was radiolabeled and the binding was performed according to the description for the pancreas method with modification according to Saito et al. (J. Neurochem. 37, 483-490, 1981).
Male Hartley guinea pigs (300-500 g) were sacrificed by decapitation and the brains were removed and placed in ice-cold 50 mM, Tris HCl plus 7.58 g/l Trizma-7.4 (pH 7.4 at 25° C.). Cerebral cortex was dissected and used as a receptor source. Each gram of fresh guinea pig brain tissue was homogenized in 10 ml of Tris Trizma buffer with a Brinkman polytron PT-10. The homogenates were centrifuged at 42,000 g for 15 min. […] All assays were run in duplicate or triplicate. The reaction mixtures were incubated at 25° C. for 2 hours and centrifuged in a Beckman Microfuge (4 minutes) immediately after adding 1 ml of ice-cold incubation buffer. The supernatant was aspirated and discarded, pellets were counted with a Beckman gamma 5000.

T2 sequence (H0VZC5 entry or part of it): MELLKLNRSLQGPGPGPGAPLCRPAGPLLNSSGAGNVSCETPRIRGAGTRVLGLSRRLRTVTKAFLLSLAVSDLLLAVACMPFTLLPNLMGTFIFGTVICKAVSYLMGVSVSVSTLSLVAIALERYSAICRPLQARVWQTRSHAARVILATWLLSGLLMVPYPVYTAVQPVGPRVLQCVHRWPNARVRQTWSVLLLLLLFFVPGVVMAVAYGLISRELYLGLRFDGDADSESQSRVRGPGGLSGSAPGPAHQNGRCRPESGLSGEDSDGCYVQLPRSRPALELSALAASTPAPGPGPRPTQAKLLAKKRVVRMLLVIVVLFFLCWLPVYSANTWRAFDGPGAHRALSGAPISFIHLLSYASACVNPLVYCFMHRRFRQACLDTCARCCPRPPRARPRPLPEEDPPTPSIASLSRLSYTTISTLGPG

Compound | affinity for CCK-A receptors [1] | affinity for CCK-B receptors [4] | other results
gastrin | lower affinity |  | 
O=S(=O)(F)Cc1ccccc1 [phenylmethane sulfonyl fluoride] |  |  | effect on the 125I-CCK receptor binding assay [2]: no effect
CSCC[C@H](NC(=O)[C@H](Cc1ccc(OS(=O)(=O)O)cc1)NC(=O)[C@@H](N)CC(=O)O)C(=O)NCC(=O)N[C@@H](Cc1c[nH]c2ccccc12)C(=O)N[C@@H](CCSC)C(=O)N[C@@H](CC(=O)O)C(=O)N[C@@H](Cc1ccccc1)C(N)=O [CCK-8s, H-Asp-Tyr(SO3 H)-Met-Gly-Trp-Met-Asp-Phe-NH2] | high affinity | high affinity | half-life [3]: less than 1 hour
CCK-4 | lower affinity | high affinity | 
CCK-8d: the corresponding desulphated fragment | lower affinity |  | 
CSCC[C@H](NC(=O)[C@H](Cc1c[nH]c2ccccc12)NC(=O)CCNC(=O)OC(C)(C)C)C(=O)N[C@@H](CC(=O)O)C(=O)N[C@@H](Cc1ccccc1)C(N)=O [pentagastrin] |  | high affinity | 
c1cnc2c(c1)ccc1cccnc12 [o-phenanthroline] |  |  | effect on the 125I-CCK receptor binding assay [2]: no effect
O=C(Nc1ccc(Cl)cc1)NC1N=C(c2ccccc2)c2ccccc2-n2cnnc21 (centres unmarked) [Compound 11, N-(4-Chlorophenyl)-N'-(6-phenyl-4H-[1,2,4]triazolo-[4,3-a][1,4]benzodiazepin-4-yl)urea] |  |  | IC50 [2]: 120 nM; IC50 [5]: 480 nM
Cc1nnc2n1-c1ccccc1C(c1ccccc1)=NC2NC(=O)Nc1ccc(Cl)cc1 (centres unmarked) [Compound 12, N-(4-Chlorophenyl)-N'-(1-methyl-6-phenyl-4H-[1,2,4]triazolo[4,3-a][1,4]benzodiazepin-4-yl)urea] |  |  | IC50 ([2]; rat pancreas membranes, 125I-CCK-33, 37° C., 30 minutes): 82 nM; IC50 [5]: 80 nM
